{"source": "paper PMC10846865", "about": "“The Blood-Brain Barrier: Implications for Experimental Cancer Therapeutics” (Annual review of cancer biology, 2023)", "key": {"[1]": {"assay": "Spatial drug imaging by MALDI-MSI (drug distribution in tissues)", "settings": "10 mg/kg, 30'; DHB matrix; 12 µm-thick sections, MALDI MSI 12 Tesla FT-ICR, 100 µm spatial resolution; Agar Lab"}, "PI3K pathway": {"system": "PI3K pathway", "parameters": "method as in Wen et al. 2019b", "settings": "ref Wen et al. 2019b, cited from earlier work"}, "[2]": {"parameters": "method as in Mittapalli et al. 2013", "settings": "ref Mittapalli et al. 2013; cited from earlier work"}, "CNS metastases": {"system": "CNS metastases", "parameters": "method as in Long et al. 2012, Ng et al. 2022", "settings": "ref Long et al. 2012, Ng et al. 2022; cited from earlier work"}, "glioblastoma": {"system": "glioblastoma", "parameters": "method as in Iorgulescu et al. 2021", "settings": "preclinical studies, ref Iorgulescu et al. 2021; cited from earlier work"}, "[3]": {"settings": "cited from earlier work"}, "[4]": {"settings": "cited from earlier work", "remark": "listed apart in the source"}, "[5]": {"system": "newly diagnosed glioblastoma", "parameters": "method as in Gilbert et al. 2014", "settings": "patients with newly diagnosed glioblastoma; ref Gilbert et al. 2014; cited from earlier work"}, "recurrent glioblastoma": {"system": "recurrent glioblastoma", "settings": "cited from earlier work"}}}
{"compound": "CNCc1ccc(-c2[nH]c3cc(F)cc4c3c2CCNC4=O)cc1", "note": "[Rucaparib]", "values": [{"measurement": "Drug detection on brain by MALDI or LESA", "setting": "[1]", "result": "Drug not detected on brain by MALDI or LESA"}]}
{"compound": "Nc1cc(C(F)(F)F)c(-c2cc(N3CCOCC3)nc(N3CCOCC3)n2)cn1", "note": "[buparlisib]", "values": [{"measurement": "inhibition of the PI3K pathway (molecular response)", "setting": "PI3K pathway; pharmacokinetic measures paired with molecular response", "result": "not potent enough to effectively inhibit the PI3K pathway"}, {"measurement": "unbound tumor-to-plasma ratio", "setting": "PI3K pathway", "result": "high"}]}
{"compound": "CC(C)(C)c1nc(-c2cccc(NS(=O)(=O)c3c(F)cccc3F)c2F)c(-c2ccnc(N)n2)s1", "note": "[dabrafenib]", "values": [{"measurement": "distribution across an intact BBB", "setting": "[2]", "result": "limited distribution across an intact BBB"}, {"measurement": "response in patients with CNS metastases", "setting": "CNS metastases", "result": "clinically significant response rates"}]}
{"compound": "C[C@@H]1C[C@H]2[C@@H]3CCC4=CC(=O)C=C[C@]4(C)[C@@]3(F)[C@@H](O)C[C@]2(C)[C@@]1(O)C(=O)CO", "note": "[dexamethasone]", "values": [{"measurement": "effect on clinical benefit of immune checkpoint blockade", "setting": "glioblastoma", "result": "limit the clinical benefit of immune checkpoint blockade in glioblastoma in a dose-dependent manner"}]}
{"compound": "CN(Cc1cnc2nc(N)nc(N)c2n1)c1ccc(C(=O)N[C@@H](CCC(=O)O)C(=O)O)cc1", "note": "[methotrexate]", "values": [{"measurement": "therapeutic window, intrathecal treatment", "setting": "[3]; intrathecal treatment of hematological malignancies, ref Kwong et al. 2009, Clement & Holle 2017", "result": "narrow therapeutic window"}]}
{"compound": "S=P(N1CC1)(N1CC1)N1CC1", "note": "[thiotepa]", "values": [{"measurement": "Kp,uu (unbound drug levels in blood and cerebrospinal fluid)", "setting": "[4]; blood vs cerebrospinal fluid, ref Heideman et al. 1989, 1993", "result": "~ 1"}, {"measurement": "half-life", "setting": "[4]; rapidly metabolized, ref Heideman et al. 1989, 1993", "result": "less than 2 hours"}, {"measurement": "dose-limiting toxicity", "setting": "[4]; ref Dunkel et al. 1998", "result": "myelosuppression"}, {"measurement": "apparent brain permeability (Papp)", "setting": "[4]; ref Heideman et al. 1989, 1993", "result": "high"}]}
{"compound": "CC[C@]1(O)C[C@H]2CN(CCc3c([nH]c4ccccc34)[C@@](C(=O)OC)(c3cc4c(cc3OC)N(C=O)[C@H]3[C@@](O)(C(=O)OC)[C@H](OC(C)=O)[C@]5(CC)C=CCN6CC[C@]43[C@@H]65)C2)C1", "note": "[vincristine]", "values": [{"measurement": "toxicity of inadvertent administration into the CSF", "setting": "[3]; ref Dyer 2001, Chotsampancharoen et al. 2016", "result": "fatalities due to severe neurotoxicity"}]}
{"compound": "bevacizumab", "values": [{"measurement": "overall survival", "setting": "[5]", "result": "no difference"}, {"measurement": "delivery of radiolabeled temozolomide as measured by PET imaging", "setting": "recurrent glioblastoma; in vivo", "result": "decreased delivery of radiolabeled temozolomide"}, {"measurement": "vascular permeability", "setting": "recurrent glioblastoma; not told", "result": "decrease vascular permeability"}]}
